According to ChEMBL document CHEMBL4420076, “Amylin and calcitonin receptor agonist” (2017):
Numbered stars: 1 amine (or outer) side, 2 acyl side, 3 side chain; on linkers, the order of the positions; unused ones are H or OH. Side chains are listed from the residue outwards. Peptide text beside a SMILES is read from it. * marks the point of attachment. C20 diacid = O=C(O)CCCCCCCCCCCCCCCCCCC(=O)*; γGlu = O=C(O)[C@H](CCC(=O)[*:2])N[*:1]

Columns and labels:
[1] = Solubility in 100 mM bistrispropane buffer at pH 7.0 incubated for 18 hrs by UPLC analysis; format: physicochemical
[2] = molecular target: T1, Calcitonin receptor (Homo sapiens, UniProt P30988); test: Agonist activity at human calcitonin receptor expressed in BHK570 cells assessed as increase in intracellular cAMP concentration incubated for 3 hrs in absence of albumin by CRE luciferase reporter gene assay; format: functional, cell-based
T1 sequence (P30988 whole entry): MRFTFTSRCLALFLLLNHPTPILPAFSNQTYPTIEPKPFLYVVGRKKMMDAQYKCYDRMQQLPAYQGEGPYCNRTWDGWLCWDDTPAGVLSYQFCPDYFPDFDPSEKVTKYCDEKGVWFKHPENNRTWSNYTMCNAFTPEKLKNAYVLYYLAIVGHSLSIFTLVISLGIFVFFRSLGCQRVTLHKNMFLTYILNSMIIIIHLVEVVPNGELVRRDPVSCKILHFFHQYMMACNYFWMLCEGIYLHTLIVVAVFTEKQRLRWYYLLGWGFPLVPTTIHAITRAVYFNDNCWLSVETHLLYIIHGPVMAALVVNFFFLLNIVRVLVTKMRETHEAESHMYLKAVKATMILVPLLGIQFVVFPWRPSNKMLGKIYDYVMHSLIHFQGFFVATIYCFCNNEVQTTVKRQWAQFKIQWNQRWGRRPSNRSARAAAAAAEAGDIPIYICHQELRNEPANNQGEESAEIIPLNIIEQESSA

[3] = molecular target: T2, Amylin receptor AMY3; CALCR/RAMP3 (Homo sapiens, UniProt O60896+P30988); test: Agonist activity at human amylin receptor expressed in BHK570 cells co-expressing RAMP3 assessed as increase in intracellular cAMP concentration incubated for 3 hrs in presence of 10% FBS by CRE luciferase reporter gene assay; format: functional, cell-based
T2 sequence (P30988 whole entry): T1 sequence (P30988 whole entry)
T2 sequence (O60896 whole entry): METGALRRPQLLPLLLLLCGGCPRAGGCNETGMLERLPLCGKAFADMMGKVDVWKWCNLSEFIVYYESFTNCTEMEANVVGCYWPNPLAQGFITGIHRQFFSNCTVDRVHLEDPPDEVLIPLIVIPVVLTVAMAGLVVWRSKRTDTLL

[4] = Solubility in 100 mM glycylglycine buffer at pH 4.0 incubated for 18 hrs by UPLC analysis; format: physicochemical
[5] = Solubility in 100 mM glycylglycine buffer at pH 5.0 incubated for 18 hrs by UPLC analysis; format: physicochemical
[6] = molecular target: T3, Amylin receptor AMY3; CALCR/RAMP3 (Rattus norvegicus, UniProt P32214+Q9JJ73); test: Displacement of [125I]-labeled rat amylin from rat amylin receptor expressed in BHK tkts13 cell membranes co-expressing RAMP3 incubated for 120 mins by scintillation proximity assay
T3 sequence (P32214 whole entry): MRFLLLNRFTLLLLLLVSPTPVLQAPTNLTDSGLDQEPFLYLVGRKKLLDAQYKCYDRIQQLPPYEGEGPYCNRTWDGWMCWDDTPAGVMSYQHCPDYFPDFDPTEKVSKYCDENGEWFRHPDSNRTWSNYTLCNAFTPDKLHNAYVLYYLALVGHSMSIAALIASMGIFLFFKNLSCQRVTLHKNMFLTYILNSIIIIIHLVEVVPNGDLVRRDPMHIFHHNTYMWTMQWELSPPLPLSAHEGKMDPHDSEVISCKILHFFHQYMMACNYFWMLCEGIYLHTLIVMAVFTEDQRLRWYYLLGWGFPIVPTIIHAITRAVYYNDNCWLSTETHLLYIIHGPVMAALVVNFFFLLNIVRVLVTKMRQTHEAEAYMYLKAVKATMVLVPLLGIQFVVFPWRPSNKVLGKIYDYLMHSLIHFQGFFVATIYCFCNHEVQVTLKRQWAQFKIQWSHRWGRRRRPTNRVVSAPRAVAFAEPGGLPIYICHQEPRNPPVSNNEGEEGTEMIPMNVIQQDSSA
T3 sequence (Q9JJ73 whole entry): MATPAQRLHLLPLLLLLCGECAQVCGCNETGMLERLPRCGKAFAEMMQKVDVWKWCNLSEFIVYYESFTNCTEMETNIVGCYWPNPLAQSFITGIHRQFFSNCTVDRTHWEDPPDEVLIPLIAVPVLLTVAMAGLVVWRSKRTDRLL

[7] = Solubility in 100 mM glycylglycine buffer at pH 3.0 incubated for 18 hrs by UPLC analysis; format: physicochemical
[8] = Solubility in 100 mM bistrispropane buffer at pH 6.5 incubated for 18 hrs by UPLC analysis; format: physicochemical
[9] = molecular target: T2, Amylin receptor AMY3; CALCR/RAMP3; test: Agonist activity at human amylin receptor expressed in BHK570 cells co-expressing RAMP3 assessed as increase in intracellular cAMP concentration incubated for 3 hrs in absence of albumin by CRE luciferase reporter gene assay; format: functional, cell-based
[10] = Solubility in 100 mM bistrispropane buffer at pH 7.5 incubated for 18 hrs by UPLC analysis; format: physicochemical
[11] = Stability in pH 7.5 buffer assessed as compound recovery at 1 uM by Thioflavin T based fluorescence assay; format: physicochemical; settings: read-out: Drug recovery
[12] = Solubility in 100 mM bistrispropane buffer at pH 6.0 incubated for 18 hrs by UPLC analysis; format: physicochemical
[13] = Stability in pH 7.5 buffer assessed as lag time for fibril formation at 1 uM by Thioflavin T based fluorescence assay; format: physicochemical; settings: pH 7.5, 1 µM
[14] = molecular target: T1, Calcitonin receptor; test: Agonist activity at human calcitonin receptor expressed in BHK570 cells assessed as increase in intracellular cAMP concentration incubated for 3 hrs in presence of 10% FBS by CRE luciferase reporter gene assay; format: functional, cell-based
[15] = Solubility in 100 mM bistrispropane buffer at pH 8.0 incubated for 18 hrs by UPLC analysis; format: physicochemical
[16] = system: Rattus norvegicus; test: Reduction in food intake in Sprague-Dawley rat at 3 nmol/kg measured 24 to 48 hrs post dose relative to control; format: functional; design: scale not given: the % may be the effect or the level left
[17] = system: Rattus norvegicus; test: Reduction in food intake in Sprague-Dawley rat at 3 nmol/kg measured 0 to 24 hrs post dose relative to control; format: functional; design: scale not given: the % may be the effect or the level left

Row | Structure (SMILES) | solubility at 18 h [1] | EC50 [2] | EC50 [3] | solubility at 18 h [4] | solubility at 18 h [5] | IC50 [6] | solubility at 18 h [7] | solubility at 18 h [8] | EC50 [9] | solubility at 18 h [10] | remaining at 1 µM [11] | solubility at 18 h [12] | Time [13] | EC50 [14] | solubility at 18 h [15] | Activity [16] | Activity [17]
1 | CC(C)C[C@H](NC(=O)[C@H](C)NC(=O)[C@H](C)NC(=O)[C@@H](NC(=O)[C@H](CO)NC(=O)[C@H](CC(C)C)NC(=O)[C@H](CCC(=O)O)NC(=O)[C@H](CO)NC(=O)[C@H](C)N)[C@@H](C)O)C(=O)NCC(=O)N[C@@H](CCCNC(=N)N)C(=O)N[C@@H](CC(C)C)C(=O)N[C@@H](CO)C(=O)N[C@@H](C)C(=O)N[C@@H](CCCCNC(=O)CC[C@H](NC(=O)CCCCCCCCCCCCCCCCCCC(=O)O)C(=O)O)C(=O)N[C@@H](CC(C)C)C(=O)N[C@@H](Cc1cnc[nH]1)C(=O)N[C@@H](CCC(=O)O)C(=O)N[C@@H](CC(C)C)C(=O)N[C@@H](C)C(=O)N[C@H](C(=O)N[C@@H](CC(C)C)C(=O)N1CCC[C@H]1C(=O)N[C@@H](CCCNC(=N)N)C(=O)N[C@H](C(=O)N[C@@H](CCC(=O)O)C(=O)N[C@H](C(=O)NCC(=O)N[C@@H](CO)C(=O)NCC(=O)N[C@@H](CO)C(=O)N1CCC[C@H]1C(N)=O)[C@@H](C)O)[C@@H](C)O)[C@@H](C)O (H-ASELSTAALGRLSAK([γGlu-C20 diacid])LHELATLPRTETGSGSP-NH2) | ≥ 200 µM | 0.031 nM | 0.057 nM | ≥ 200 µM | ≥ 200 µM | 1.3 nM | ≥ 200 µM | ≥ 200 µM | 0.022 nM | ≥ 200 µM | 100% | ≥ 200 µM | > 45 h | 0.048 nM | ≥ 200 µM | – | –
2 | CC(C)C[C@H](NC(=O)[C@H](C)NC(=O)[C@H](C)NC(=O)[C@@H](NC(=O)[C@H](CO)NC(=O)[C@H](CC(C)C)NC(=O)[C@H](CCC(=O)O)NC(=O)[C@H](CO)NC(=O)[C@H](C)NC(=O)CC[C@H](NC(=O)CCCCCCCCCCCCCCCCCCC(=O)O)C(=O)O)[C@@H](C)O)C(=O)NCC(=O)N[C@@H](CCCNC(=N)N)C(=O)N[C@@H](CC(C)C)C(=O)N[C@@H](CO)C(=O)N[C@@H](C)C(=O)N[C@@H](CCC(=O)O)C(=O)N[C@@H](CC(C)C)C(=O)N[C@@H](Cc1cnc[nH]1)C(=O)N[C@@H](CCC(=O)O)C(=O)N[C@@H](CC(C)C)C(=O)N[C@@H](C)C(=O)N[C@H](C(=O)N[C@@H](CC(C)C)C(=O)N1CCC[C@H]1C(=O)N[C@@H](CCCNC(=N)N)C(=O)N[C@H](C(=O)N[C@@H](CCC(=O)O)C(=O)N[C@H](C(=O)NCC(=O)N[C@@H](CO)C(=O)NCC(=O)N[C@@H](CO)C(=O)N1CCC[C@H]1C(N)=O)[C@@H](C)O)[C@@H](C)O)[C@@H](C)O ({C20 diacid-γGlu}-ASELSTAALGRLSAELHELATLPRTETGSGSP-NH2) | ≥ 200 µM | 0.014 nM | 0.051 nM | ≥ 200 µM | ≥ 200 µM | – | ≥ 200 µM | ≥ 200 µM | 0.013 nM | ≥ 200 µM | 100% | ≥ 200 µM | > 45 h | 0.029 nM | ≥ 200 µM | 79% | 49%
3 | CC(C)C[C@H](NC(=O)CNC(=O)[C@H](CO)NC(=O)[C@H](C)NC(=O)CC[C@H](NC(=O)CCCCCCCCCCCCCCCCCCC(=O)O)C(=O)O)C(=O)N[C@@H](CO)C(=O)N[C@H](C(=O)N[C@@H](C)C(=O)N[C@H](C(=O)N[C@@H](CC(C)C)C(=O)NCC(=O)N[C@@H](CCCNC(=N)N)C(=O)N[C@@H](CC(C)C)C(=O)N[C@@H](CO)C(=O)N[C@@H](C)C(=O)N[C@@H](CCC(=O)O)C(=O)N[C@@H](CC(C)C)C(=O)N[C@@H](Cc1cnc[nH]1)C(=O)N[C@@H](CCC(=O)O)C(=O)N[C@@H](CC(C)C)C(=O)N[C@@H](C)C(=O)N[C@H](C(=O)N[C@@H](Cc1ccc(O)cc1)C(=O)N1CCC[C@H]1C(=O)N[C@@H](CCCNC(=N)N)C(=O)N[C@H](C(=O)N[C@@H](CCC(=O)O)C(=O)N[C@H](C(=O)NCC(=O)N[C@@H](CO)C(=O)NCC(=O)N[C@H](C(=O)N1CCC[C@H]1C(N)=O)[C@@H](C)O)[C@@H](C)O)[C@@H](C)O)[C@@H](C)O)C(C)C)[C@@H](C)O ({C20 diacid-γGlu}-ASGLSTAVLGRLSAELHELATYPRTETGSGTP-NH2) | ≥ 200 µM | 0.028 nM | 0.066 nM | ≥ 200 µM | ≥ 200 µM | – | ≥ 200 µM | ≥ 200 µM | 0.047 nM | ≥ 200 µM | 100% | ≥ 200 µM | > 45 h | 0.035 nM | ≥ 200 µM | 57% | 52%
4 | CC(C)C[C@H](NC(=O)CNC(=O)[C@H](CO)NC(=O)[C@H](C)NC(=O)CC[C@H](NC(=O)CCCCCCCCCCCCCCCCCCC(=O)O)C(=O)O)C(=O)N[C@@H](CO)C(=O)N[C@H](C(=O)N[C@@H](C)C(=O)N[C@H](C(=O)N[C@@H](CC(C)C)C(=O)NCC(=O)N[C@@H](CCCNC(=N)N)C(=O)N[C@@H](CC(C)C)C(=O)N[C@@H](CO)C(=O)N[C@@H](CCC(N)=O)C(=O)N[C@@H](CCC(=O)O)C(=O)N[C@@H](CC(C)C)C(=O)N[C@@H](Cc1cnc[nH]1)C(=O)N[C@@H](CCC(=O)O)C(=O)N[C@@H](CC(C)C)C(=O)N[C@@H](CCC(N)=O)C(=O)N[C@H](C(=O)N[C@@H](Cc1ccc(O)cc1)C(=O)N1CCC[C@H]1C(=O)N1CCC[C@H]1C(=O)N[C@H](C(=O)N[C@@H](CCC(=O)O)C(=O)N[C@H](C(=O)NCC(=O)N[C@@H](CO)C(=O)N[C@@H](CCC(N)=O)C(=O)N[C@H](C(=O)N[C@@H](Cc1ccc(O)cc1)C(N)=O)[C@@H](C)O)[C@@H](C)O)[C@@H](C)O)[C@@H](C)O)C(C)C)[C@@H](C)O ({C20 diacid-γGlu}-ASGLSTAVLGRLSQELHELQTYPPTETGSQTY-NH2) | ≥ 200 µM | 0.057 nM | 0.152 nM | – | ≥ 200 µM | – | ≥ 200 µM | ≥ 200 µM | – | ≥ 200 µM | 100% | ≥ 200 µM | > 45 h | 0.072 nM | ≥ 200 µM | 5% | 9%
